The values below come from patent US11440907B1 (Merck Patent GmbH, priority 2018, dated 2022).

Bounds are passed on as bounds.

The subject of the first assay is XBP1(u)-luciferase splicing reporter in HepG2 hepatoma cells. The experiment in a line: HepG2 XBP1 reporter assay (XBP1(u)-Luc). Format: cell-based. The conditions noted are these: Homo sapiens, 6 h, six hours after addition of compound. An excerpt:
HepG2 XBP1 Reporter Assay
HepG2 hepatoma cells were transduced with a retrovirus encoding the cDNA for unspliced (u) XBP1, which contains a non-processed intron, fused to the cDNA for firefly luciferase. Upon induction of ER stress, the non-processed intron of XBP1(u) is spliced out by active IRE1alpha endonuclease. The resulting spliced (s) XBP1 is now in frame with luciferase which causes the production of active luciferase protein, resulting in bioluminescence
HepG2 XBP1(u)-Luc cells were plated […] Cultured cells with a stably transfected reporter construct were plated at approximately 30,000 cells per well into 96 well multi-well plates for twenty four hours. The testing compounds were then added to the wells in 3-fold serial dilutions using a twenty seven micromolar top concentration. A series of control wells for each cell type received only compound solvent. Six hours after the addition of compound, reporter activity for luciferase was assayed, by addition of the SteadyGlo luminescence reagent (Promega). The reporter luminescence activity was measured using Pherastar plate reader (BMG Labtech). Readings was normalized to DMSO only treated cells, and normalized activities were then used in the IC50 calculations. The HepG2 XBP1 reporter assay data are summarized in Tables 3-5: A<0.6 μM; 0.6 μM≤B<2.0 μM; 2.0 μM≤C<5.0 μM; D≥5.0 μM.
On the technique in general: In a reporter assay the amount or activity of a reporter protein is the signal.
For the compound `Cc1cc(N2CCCOCC2c2cc3c(cc2Cl)NC[C@@](C)(C(=O)NC2CC2)O3)nc(N)n1` (stereo partly drawn) [D-122], the IC50 (commonly the point on the concentration scale where inhibition reaches its midpoint) was < 0.6 µM.
`Cc1cc(N2CCCOC[C@@H]2c2cc(O)c(C(=O)NC(C)C)cc2Cl)nc(N)n1` [D-123] gave an IC50 of 2 to 5 µM.
Regarding `Cc1cc(N2CCCOCC2c2cc3c(cc2Cl)NC[C@@](C)(C(=O)NC(C)C)O3)nc(N)n1` (stereo partly drawn) [D-124], the IC50 was < 0.6 µM.
Consider `Cc1cc(N2CCCOCC2c2cc3c(cc2Cl)NC[C@@](C)(C(=O)OC(C)C)O3)nc(N)n1` (stereo partly drawn) [D-125], for which the IC50 was < 0.6 µM.
On the same count and under the same terms, then `Cc1cc(N2CCCOC[C@@H]2c2cc3c(cc2Cl)NC[C@@](C)(C(=O)N2CCOCC2)O3)nc(N)n1` [D-126], with < 0.6 µM; and `COc1cc(OC)c(C2COCCCN2c2cc(C)nc(N)n2)cc1O` [D-127], with < 0.6 µM.
Consider `Cc1cc(N2CCCOC[C@H]2c2cc3c(cc2Cl)NC[C@@](C)(C(=O)OC(C)C)O3)nc(N)n1` [D-128], for which the IC50 lay within 0.6 to 2 µM.
On the same count and under the same terms, the result for `CCOC(=O)c1cc(C2COCCCN2c2cc(C)nc(N)n2)c(Cl)cc1C#N` [D-129] reads ≥ 5 µM; that for `Cc1cc(N2CCCOC[C@@H]2c2cc(O)c(C(=O)NCCO)cc2Cl)nc(N)n1` [D-130], ≥ 5 µM; that for `Cc1cc(N2CCCOC[C@@H]2c2cc(O)c(C(=O)NC3CC3)cc2Cl)nc(N)n1` [D-131], ≥ 5 µM.
As to `Cc1cc(N2CCCOC[C@@H]2c2cc3c(cc2Cl)NC[C@@](C)(C(=O)N(C)C)O3)nc(N)n1` [D-132], the IC50 is < 0.6 µM.
On to `Cc1cc(N2CCCOC[C@@H]2c2cc3c(cc2Cl)NC[C@@](C)(C(=O)NCCO)O3)nc(N)n1` [D-133], for which the IC50 was < 0.6 µM.
Still for that read-out and setting: the result for `CCOC(=O)c1cc(Cl)c(C2COCCCN2c2cc(C)nc(N)n2)cc1C#N` [D-134] reads ≥ 5 µM.
As to `COC(=O)c1cc(Cl)c(C2COCCCN2c2cc(C)nc(N)n2)cc1C#N` [D-135], the 50% inhibitory concentration (IC50) is ≥ 5 µM.
On the same count and under the same terms, the result for `Cc1cc(N2CCCOCC2c2ccc(C(C)(C)S(C)(=O)=O)cc2Cl)nc(N)n1` [D-136] reads < 0.6 µM.
Turning to `Cc1cc(N2CCCOC[C@@H]2c2cc(O)c(C(=O)N3CCOCC3)cc2Cl)nc(N)n1` [D-137], the IC50 was < 0.6 µM.
Same read-out and setting: then `CS(=O)(=O)c1ccc(C2COCCCN2c2ccnc(N)n2)c(Cl)c1` [D-138], with ≥ 5 µM; and `Cc1cc(N2CCCOC[C@@H]2c2ccc([C@H](C)S(C)(=O)=O)cc2Cl)nc(N)n1` [D-139], with 0.6 to 2 µM.
`Cc1cc(N2CCCOCC2c2ccc(Br)cc2OC(F)(F)F)nc(N)n1` [D-140]: the IC50 was ≥ 5 µM.
In the case of `Cc1cc(N2CCCOCC2c2cc(CC(=O)O)c(C#N)cc2Cl)nc(N)n1` [D-156], the IC50 is ≥ 5 µM.
The same measure, in the same setting: the result for `CCOc1cc(C2COCCCN2c2cc(C)nc(N)n2)c(Cl)cc1OCC(=O)O` [D-160] reads ≥ 5 µM.
In the case of `Cc1cc(N2CCCOC[C@H]2c2cc(N)c(OC(F)(F)F)cc2Cl)nc(N)n1` [D-161], the IC50 is ≥ 5 µM.
Regarding `CCc1cc(N2CCCOC[C@H]2c2ccc(OS(C)(=O)=O)cc2Cl)nc(N)n1` [D-162], the half-inhibitory concentration (IC50) is ≥ 5 µM.
Regarding `Cc1cc(N2CCCOC[C@H]2c2ccc(C3CCN(C4COC4)CC3)cc2Cl)nc(N)n1` [D-163], the IC50 is ≥ 5 µM.
Same read-out and setting: then `Cc1cc(N2CCCOC[C@H]2c2cc(CN)c(C)cc2Cl)nc(N)n1` [D-164], with ≥ 5 µM; and `Cc1cc(N2CCCOC[C@H]2c2cc(O)c(C)cc2Cl)nc(N)n1` [D-165], with ≥ 5 µM; and `Cc1cc(N2CCCOC[C@@H]2c2cnc(CS(C)(=O)=O)cc2Cl)nc(N)n1` [D-166], with ≥ 5 µM.
As to `Cc1cc(N2CCCOC[C@H]2c2ncc(CS(C)(=O)=O)cc2Cl)nc(N)n1` [D-167], the IC50 is ≥ 5 µM.
With `COc1ccc([C@@H]2COCCCN2c2cc(C)nc(N)n2)c(Cl)c1` [D-168], the IC50 was ≥ 5 µM.
`Cc1cc(N2CCCOC[C@H]2c2cc(O)c(CS(C)(=O)=O)cc2Cl)nc(N)n1` [D-171]: the IC50 is ≥ 5 µM.
Still for that read-out and setting: then `Cc1cc(N2CCCOCC2c2cnc(CS(C)(=O)=O)nc2O)nc(N)n1` [D-172], with ≥ 5 µM; and `Cc1cc(N2CCCOC[C@H]2c2ccc(CS(C)(=O)=O)nc2OC(F)F)nc(N)n1` [D-173], with ≥ 5 µM; and `Cc1cc(N2CCCOC[C@H]2c2cc(CN)c(Cl)cc2C)nc(N)n1` [D-174], with ≥ 5 µM.
`Cc1cc(N2CCCOCC2c2ccc3ncnn3c2)nc(N)n1` [D-175]: the IC50 was ≥ 5 µM.
Same read-out and setting: then `CCOc1cc([C@@H]2COCCCN2c2cc(C)nc(N)n2)c(Cl)cc1OCC(N)=O` [D-176], with ≥ 5 µM; and `Cc1cc(N2CCCOCC2c2ccc(Cl)cc2C(=O)O)nc(N)n1` [D-177], with ≥ 5 µM.
The same measure, in the same setting: the result for `C#CCOc1cc(Cl)c([C@@H]2COCCCN2c2cc(C)nc(N)n2)cc1OC` [D-178] reads ≥ 5 µM; that for `CCc1cc(N2CCCOC[C@H]2c2cc(O)c(OC)cc2Cl)nc(N)n1` [D-179], ≥ 5 µM; that for `Cc1cc(N2CCCOC[C@H]2c2cc(O)c(C(N)=O)cc2Cl)nc(N)n1` [D-180], ≥ 5 µM.
As for `Cc1cc(N2CCCOC[C@@H]2c2cc3c(cc2Cl)NC[C@@](C)(C(=O)O)O3)nc(N)n1` [D-181], the IC50 was ≥ 5 µM.
Same read-out and setting: the result for `CNC(=O)c1cc(Cl)c([C@@H]2COCCCN2c2cc(C)nc(N)n2)cc1O` [D-182] reads ≥ 5 µM.
`Cc1cc(N2CCCOC[C@H]2c2cc(O)c(C(=O)N(C)C)cc2Cl)nc(N)n1` [D-183]: the IC50 is ≥ 5 µM.
Same read-out and setting: then `Cc1cc(N2CCCOC[C@H]2c2cc(O)c(OC(F)(F)F)cc2Cl)nc(N)n1` [D-184], with ≥ 5 µM; and `Cc1cc(N2CCCOC[C@H]2c2cc(O)c(C(=O)NCCO)cc2Cl)nc(N)n1` [D-185], with ≥ 5 µM.
The same measure, in the same setting: then `Cc1cc(N2CCCOC[C@H]2c2cc(O)c(C(=O)NC3CC3)cc2Cl)nc(N)n1` [D-186], with ≥ 5 µM.
With `Cc1cc(N2CCCOCC2c2ccc(C(=O)O)cc2Cl)nc(N)n1` [D-187], the IC50 was ≥ 5 µM.
On the same count and under the same terms, the result for `CS(=O)(=O)c1ccc(C2COCCCN2c2cc(C(F)(F)F)nc(N)n2)c(Cl)c1` [D-188] reads ≥ 5 µM; that for `Cc1cc(N2CCCOC[C@H]2c2cc(O)c(C(=O)N3CCOCC3)cc2Cl)nc(N)n1` [D-189], ≥ 5 µM; that for `Cc1cc(N2CCCOCC2c2ccc(S(C)(=O)=O)cc2C#N)nc(N)n1` [D-190], ≥ 5 µM.
Still for that read-out and setting: the result for `Cc1cc(N2CCCOC[C@@H]2c2ccc(C(C)(C)S(C)(=O)=O)cc2Cl)nc(N)n1` [D-191] reads ≥ 5 µM.

The next assay relates to β-catenin-TCF-mediated reporter transcription activity in Colo 205 cells. The experiment in a line: Colo 205 reporter assay (TCF/LEF promoter-driven firefly luciferase). Format: cell-based. The following applies: Homo sapiens; Colo 205 TCF/LEF luciferase reporter, 5 hours after compound addition, 384 well; read-out: Colo205 IC50. An excerpt: The compounds of the invention described herein were screened using the assay procedure for β-catenin-TCF-mediated reporter transcription activity described below.
Reporter cell lines were generated by stably transfecting cells of cancer cell lines (e.g., colon cancer) with a plasmid reporter construct (From SABiosciences, a QIAGEN company) that includes TCF/LEF promoter driving expression of the firefly luciferase gene. TCF/LEF reporter constructs were made in which TCF/LEF promoter, a promoter with optimal number of TCF/LEF binding sites designed by SABiosciences, was linked upstream of the firefly luciferase gene. This construct could also include a puromycin resistance gene as a selectable marker. This construct could also be used to stably transfect Colo 205 cells, a colon cancer cell line having a mutated APC gene that causes a constitutively active β-catenin. A control cell line was generated using another plasmid construct containing the luciferase gene under the control of a CMV basal promoter which is not activated by β-catenin.
Colo 205 Cultured cells with a stably transfected reporter construct were plated at approximately 10,000 cells per well into 384 well multi-well plates for twenty four hours. The testing compounds were then added to the wells in 2-fold serial dilutions using a twenty micromolar top concentration. A series of control wells for each cell type received only compound solvent. Five hours after the addition of compound, reporter activity for luciferase was assayed, by addition of the SteadyGlo luminescence reagent (Promega). The reporter luminescence activity was measured using Pherastar plate reader (BMG Labtech). Readings were normalized to DMSO only treated cells, and normalized activities were then used in the IC50 calculations. The Colo 205 reporter assay data are summarized in Table 3: A<0.3 μM; 0.3 μM≤B<1.0 μM; 1.0 μM≤C<5.0 μM; D≥5.0 μM.
With `CSc1ccccc1C1CCCCCN1c1cc(C)nc(N)n1` (racemic) [I-5, (+/−)-4-methyl-6-(2-(2-(methylthio)phenyl)azepan-1-yl)pyrimidin-2-amine], the IC50 fell in the range of 0.3 to 1 µM.
With `Cc1cc(N2CCCOCC2c2ccccc2Cl)nc(N)n1` (racemic) [I-19, (+/−)-4-[3-(2-chlorophenyl)-1,4-oxazepan-4-yl]-6-methyl-pyrimidin-2-amine], the IC50 is < 0.3 µM.
`Cc1cc(N2CCCOCC2c2ccccc2F)nc(N)n1` (racemic) [I-32, (+/−)-4-[3-(2-fluorophenyl)-1,4-oxazepan-4-yl]-6-methyl-pyrimidin-2-amine]: the IC50 was < 0.3 µM.
For `Cc1cc(N2CCCOCC2c2ccc(F)cc2Cl)nc(N)n1` (racemic) [I-63, (+/−)-4-[3-(2-chloro-4-fluoro-phenyl)-1,4-oxazepan-4-yl]-6-methyl-pyrimidin-2-amine], the IC50 is 0.3 to 1 µM.
Still for that read-out and setting: the result for `Cc1cc(N2CCCOCC2c2ccc(S(C)(=O)=O)cc2Cl)nc(N)n1` (racemic) [I-66, (+/−)-4-(3-(2-chloro-4-(methylsulfonyl)phenyl)-1,4-oxazepan-4-yl)-6-methylpyrimidin-2-amine] reads 1 to 5 µM; that for `COc1cc(S(C)(=O)=O)ccc1C1CCCCCN1c1cc(C)nc(N)n1` (racemic) [I-88, (+/−)-4-(2-(2-methoxy-4-(methylsulfonyl)phenyl)azepan-1-yl)-6-methylpyrimidin-2-amine], 0.3 to 1 µM.
Regarding `COc1ccc(OC)c(C2COCCCN2c2cc(C)nc(N)n2)c1` (racemic) [I-93, (+/−)-4-[3-(2,5-dimethoxyphenyl)-1,4-oxazepan-4-yl]-6-methyl-pyrimidin-2-amine], the IC50 is 0.3 to 1 µM.
